pIC50: −log10 of the molar value. Converted amounts (≈) assume the structure as drawn. The source made the active and inactive calls. The calls are words filed in the database; no cut-off is given here.
What was measured:
Candida parapsilosis = assay: Antifungal activity against Candida parapsilosis GIM 2.190 assessed as fungal growth inhibition by CLSI based serial microbroth dilution method; assay type: functional; conditions: Lodderomyces parapsilosis
Nakaseomyces glabratus = assay: Antifungal activity against Candida glabrata clinical isolate assessed as fungal growth inhibition by CLSI based serial microbroth dilution method; assay type: functional
Candida albicans [1] = assay: Antifungal activity against FLC-resistant Candida albicans 632 assessed as fungal growth inhibition by CLSI based serial microbroth dilution method; assay type: functional
Candida albicans [2] = assay: Antifungal activity against Candida albicans CPCC400616 assessed as fungal growth inhibition by CLSI based serial microbroth dilution method; assay type: functional
Candida albicans [3] = assay: Antifungal activity against FLC-resistant Candida albicans 100 assessed as fungal growth inhibition by CLSI based serial microbroth dilution method; assay type: functional
Pichia kudriavzevii = assay: Antifungal activity against Candida krusei GIM 2.1 assessed as fungal growth inhibition by CLSI based serial microbroth dilution method; assay type: functional
Candida albicans [4] = assay: Antifungal activity against FLC-resistant Candida albicans 901 assessed as fungal growth inhibition by CLSI based serial microbroth dilution method; assay type: functional
Cryptococcus neoformans = assay: Antifungal activity against Cryptococcus neoformans CGMCC 2.3161 assessed as fungal growth inhibition by CLSI based serial microbroth dilution method; assay type: functional
Candida albicans [5] = assay: Antifungal activity against FLC-resistant Candida albicans 311 assessed as fungal growth inhibition by CLSI based serial microbroth dilution method; assay type: functional
Candida albicans [6] = assay: Antifungal activity against Candida albicans ATCC SC5314 assessed as fungal growth inhibition by CLSI based serial microbroth dilution method; assay type: functional
Aspergillus fumigatus = assay: Antifungal activity against Aspergillus fumigatus CGMCC 3.7795 assessed as fungal growth inhibition by CLSI based serial microbroth dilution method; assay type: functional
Candida tropicalis = assay: Antifungal activity against Candida tropicalis CGMCC 2.3739 assessed as fungal growth inhibition by CLSI based serial microbroth dilution method; assay type: functional
Candida albicans [7] = assay: Antifungal activity against FLC-resistant Candida albicans 103 assessed as fungal growth inhibition by CLSI based serial microbroth dilution method; assay type: functional
Candida albicans [8] = assay: Antifungal activity against FLC and ITC-resistant Candida albicans 17 assessed as fungal growth inhibition by CLSI based serial microbroth dilution method; assay type: functional
Candida albicans [9] = assay: Antifungal activity against FLC-resistant Candida albicans 904 assessed as fungal growth inhibition by CLSI based serial microbroth dilution method; assay type: functional
Candida albicans [10] = assay: Antifungal activity against FLC-resistant Candida albicans CaR assessed as fungal growth inhibition by CLSI based serial microbroth dilution method; assay type: functional
Candida albicans [11] = assay: Antibiofilm activity against Candida albicans […] assessed as inhibition of […] metabolism within the biofilm measured after 3 hrs by XTT reduction assay; assay type: functional
Cell membrane [12] = assay: Disruption of membrane integrity in Candida albicans ATCC SC5314 assessed as cell membrane damage at 16 ug/ml incubated for 48 hrs by transmission electron microscopy; assay type: subcellular; conditions: dose 16.0 µg/ml
Candida albicans [13] = assay: Antibiofilm activity against Candida albicans […] assessed as inhibition of […] metabolism within the biofilm measured after 18 hrs by XTT reduction assay; assay type: functional
Candida albicans [14] = assay: Fungicidal activity against Candida albicans CPCC400616 measured after 48 hrs; assay type: functional
[15] = Cytotoxicity against human HepG2 cells assessed as reduction in cell viability incubated for 96 hrs by MTT assay; assay type: toxicity, cell-based
Cell membrane [16] = assay: Disruption of membrane integrity in Candida albicans ATCC SC5314 assessed as rupture of fungal cells at 16 ug/ml incubated for 48 hrs by transmission electron microscopy; assay type: subcellular; conditions: dose 16.0 µg/ml
A549 = assay: Cytotoxicity against human A549 cells assessed as reduction in cell viability incubated for 96 hrs by MTT assay; assay type: functional, cell-based; conditions: A549, 96 h
Candida albicans [17] = assay: Antibiofilm activity against Candida albicans […] assessed as inhibition of […] metabolism activity in the biofilm measured after 24 hrs by XTT reduction assay; assay type: functional
[18] = Stability of the compound in human plasma assessed as half life measured after […] by LC-MS/MS analysis; assay type: ADME, cell-free
Candida albicans [19] = assay: Antibiofilm activity against Candida albicans […] assessed as inhibition of […] metabolism within the biofilm measured after 6 hrs by XTT reduction assay; assay type: functional
RAW264.7 = assay: Cytotoxicity against mouse RAW264.7 cells assessed as reduction in cell viability incubated for 96 hrs by MTT assay; assay type: functional, cell-based; conditions: RAW264.7, 96 h
MCF7 = assay: Cytotoxicity against human MCF7 cells assessed as reduction in cell viability incubated for 96 hrs by MTT assay; assay type: functional, cell-based; conditions: MCF7, 96 h
[20] = Stability of the compound in human plasma assessed as parent compound remaining after […] by LC-MS/MS analysis; assay type: ADME, cell-free; conditions: read-out: Stability
Cell membrane [21] = assay: Disruption of membrane integrity in Candida albicans ATCC SC5314 assessed as endogenous substances leakage at 16 ug/ml incubated for 48 hrs by transmission electron microscopy; assay type: subcellular; conditions: dose 16.0 µg/ml
[22] = Stability of the compound in human plasma assessed as parent compound remaining after 120 hrs by LC-MS/MS analysis; assay type: ADME, cell-free; conditions: read-out: Stability
Cell membrane [23] = assay: Disruption of membrane integrity in Candida albicans ATCC SC5314 assessed as cell wall damage at 16 ug/ml incubated for 48 hrs by transmission electron microscopy; assay type: subcellular; conditions: dose 16.0 µg/ml
Candida albicans [24] = assay: Antibiofilm activity against Candida albicans […] assessed as inhibition of […] metabolism activity in the biofilm measured after 48 hrs by XTT reduction assay; assay type: functional
[25] = Cytotoxicity against human THLE-2 cells assessed as reduction in cell viability incubated for 96 hrs by MTT assay; assay type: toxicity, cell-based
[26] = target: T1, Lanosterol 14-alpha demethylase (Candida albicans (strain SC5314 / ATCC MYA-2876) (Yeast), UniProt P10613); assay: Inhibition of CYP51 in Candida albicans ATCC SC5314 assessed as 14alpha-methylergosta-8,24(28)-dien-3beta-6alpha-diol level at 0.25 ug/ml measured after 18 hrs by GC-MS analysis relative to control; set-up: scale not given: the % may be the effect or the level left; conditions: at 0.25 µg/mL
[27] = target: T1, Lanosterol 14-alpha demethylase; assay: Inhibition of CYP51 in Candida albicans ATCC SC5314 assessed as eburicol level at 0.25 ug/ml measured after 18 hrs by GC-MS analysis relative to control; set-up: scale not given: the % may be the effect or the level left; conditions: at 0.25 µg/mL
[28] = target: T1, Lanosterol 14-alpha demethylase; assay: Inhibition of CYP51 in Candida albicans ATCC SC5314 assessed as unknown sterol level at 0.25 ug/ml measured after 18 hrs by GC-MS analysis (reference value: 3.07 %); set-up: scale not given: the % may be the effect or the level left; conditions: at 0.25 µg/mL
[29] = target: T1, Lanosterol 14-alpha demethylase; assay: Inhibition of CYP51 in Candida albicans ATCC SC5314 assessed as lanosterol level at 0.25 ug/ml measured after 18 hrs by GC-MS analysis relative to control; set-up: scale not given: the % may be the effect or the level left; conditions: at 0.25 µg/mL
[30] = target: T1, Lanosterol 14-alpha demethylase; assay: Inhibition of CYP51 in Candida albicans ATCC SC5314 assessed as ergosterol level at 0.25 ug/ml measured after 18 hrs by GC-MS analysis (reference value: 96.93 %); set-up: scale not given: the % may be the effect or the level left; conditions: at 0.25 µg/mL

T1 sequence (P10613 whole entry): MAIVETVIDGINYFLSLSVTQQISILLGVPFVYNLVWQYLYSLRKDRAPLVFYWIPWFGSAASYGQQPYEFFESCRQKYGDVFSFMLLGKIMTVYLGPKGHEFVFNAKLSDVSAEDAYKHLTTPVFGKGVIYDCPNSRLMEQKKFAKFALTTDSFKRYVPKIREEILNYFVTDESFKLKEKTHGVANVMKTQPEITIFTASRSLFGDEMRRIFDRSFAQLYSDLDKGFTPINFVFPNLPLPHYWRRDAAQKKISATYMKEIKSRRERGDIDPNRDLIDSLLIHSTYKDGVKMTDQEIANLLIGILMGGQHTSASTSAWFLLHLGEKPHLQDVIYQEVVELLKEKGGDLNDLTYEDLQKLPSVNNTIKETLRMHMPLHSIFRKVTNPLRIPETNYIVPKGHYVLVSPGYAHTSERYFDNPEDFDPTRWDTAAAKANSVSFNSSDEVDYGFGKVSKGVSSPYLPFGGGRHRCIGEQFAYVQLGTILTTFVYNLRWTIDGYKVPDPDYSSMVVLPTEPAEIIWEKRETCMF

| SMILES | MIC (Candida parapsilosis) [µg/mL] | MIC (Nakaseomyces glabratus) [µg/mL] | MIC (Candida albicans [1]) [µg/mL] | MIC (Candida albicans [2]) [µg/mL] | MIC (Candida albicans [3]) [µg/mL] | MIC (Pichia kudriavzevii) [µg/mL] | MIC (Candida albicans [4]) [µg/mL] | MIC (Cryptococcus neoformans) [µg/mL] | MIC (Candida albicans [5]) [µg/mL] | MIC (Candida albicans [6]) [µg/mL] | MIC (Aspergillus fumigatus) [µg/mL] | MIC (Candida tropicalis) [µg/mL] | MIC (Candida albicans [7]) [µg/mL] | MIC (Candida albicans [8]) [µg/mL] | MIC (Candida albicans [9]) [µg/mL] | MIC (Candida albicans [10]) [µg/mL] | further results |
| --- | --- | --- | --- | --- | --- | --- | --- | --- | --- | --- | --- | --- | --- | --- | --- | --- | --- |
| c1ccc(CC2(Cn3ccnc3)COC(c3ccc(-c4ccsc4)cc3)=N2)cc1 (centres undefined) | 0.5 (≈ 1.25 µM) | > 64 | 16 (≈ 40 µM) | 0.25 (≈ 0.626 µM) | 2 (≈ 5.01 µM) | > 64 | 4 (≈ 10 µM) | 8 (≈ 20 µM) | 4 (≈ 10 µM) | 0.5 (≈ 1.25 µM) | 16 (≈ 40 µM) | 0.25 (≈ 0.626 µM) | 2 (≈ 5.01 µM) | 4 (≈ 10 µM) | 2 (≈ 5.01 µM) | 32 (≈ 80.1 µM) | – |
| Fc1ccccc1CC1(Cn2ccnc2)COC(c2ccc(-c3ccsc3)cc2)=N1 (centres undefined) | 0.5 (≈ 1.2 µM) | 16 (≈ 38.3 µM) | 8 (≈ 19.2 µM) | 0.5 (≈ 1.2 µM) | 2 (≈ 4.79 µM) | 1 (≈ 2.4 µM) | 2 (≈ 4.79 µM) | 16 (≈ 38.3 µM) | 4 (≈ 9.58 µM) | 0.125 (≈ 0.299 µM) | 32 (≈ 76.6 µM) | 0.125 (≈ 0.299 µM) | 1 (≈ 2.4 µM) | 8 (≈ 19.2 µM) | 2 (≈ 4.79 µM) | 32 (≈ 76.6 µM) | – |
| Fc1cccc(F)c1CC1(Cn2ccnc2)COC(c2ccc(-c3ccsc3)cc2)=N1 (centres undefined) | 0.125 (≈ 0.287 µM) | 0.06 (≈ 0.138 µM) | 4 (≈ 9.18 µM) | 0.015 (≈ 0.0344 µM) | 4 (≈ 9.18 µM) | 0.25 (≈ 0.574 µM) | 0.5 (≈ 1.15 µM) | 0.125 (≈ 0.287 µM) | 8 (≈ 18.4 µM) | 0.06 (≈ 0.138 µM) | 8 (≈ 18.4 µM) | 0.015 (≈ 0.0344 µM) | 2 (≈ 4.59 µM) | 8 (≈ 18.4 µM) | 2 (≈ 4.59 µM) | 1 (≈ 2.3 µM) | MIC50 (Candida albicans [11]): 0.25 µg/mL (≈ 0.574 µM); Activity (Cell membrane [12]): Active; MIC50 (Candida albicans [13]): 4 µg/mL (≈ 9.18 µM); MFC (Candida albicans [14]): 1 µg/mL (≈ 2.3 µM); IC50 at 96 h [15]: 34.2 µM; Activity (Cell membrane [16]): Active; pIC50 (A549): < 4.30; MIC50 (Candida albicans [17]): 32 µg/mL (≈ 73.5 µM); half-life [18]: > 4.8 h; MIC50 (Candida albicans [19]): 0.5 µg/mL (≈ 1.15 µM); pIC50 (RAW264.7): 5.12; pIC50 (MCF7): < 4.30; remaining [20]: 88.5%; Activity (Cell membrane [21]): Active; remaining at 120 h [22]: 90.1%; Activity (Cell membrane [23]): Active; MIC50 (Candida albicans [24]): > 64 µg/mL; IC50 at 96 h [25]: 22.6 µM |
| OC(Cn1cncn1)(Cn1cncn1)c1ccc(F)cc1F [FLUCONAZOLE] | 2 (≈ 6.53 µM) | 4 (≈ 13.1 µM) | > 64 | 1 (≈ 3.27 µM) | > 64 | 8 (≈ 26.1 µM) | 64 (≈ 209 µM) | 4 (≈ 13.1 µM) | > 64 | 0.5 (≈ 1.63 µM) | > 64 | 0.5 (≈ 1.63 µM) | > 64 | > 64 | 32 (≈ 104 µM) | > 64 | MIC50 (Candida albicans [11]): 16 µg/mL (≈ 52.2 µM); Activity [26]: 22.35%; Activity (Cell membrane [12]): Active; MIC50 (Candida albicans [13]): 64 µg/mL (≈ 209 µM); MFC (Candida albicans [14]): > 64 µg/mL; Activity [27]: 29.02%; IC50 at 96 h [15]: > 50 µM; Activity (Cell membrane [16]): Active; pIC50 (A549): < 4.30; MIC50 (Candida albicans [17]): > 64 µg/mL; MIC50 (Candida albicans [19]): 32 µg/mL (≈ 104 µM); Activity [28]: 1.59%; pIC50 (RAW264.7): < 4.30; pIC50 (MCF7): < 4.30; Activity (Cell membrane [21]): Active; Activity [29]: 34.42%; Activity (Cell membrane [23]): Active; MIC50 (Candida albicans [24]): > 64 µg/mL; Activity [30]: 3.15%; IC50 at 96 h [25]: > 50 µM |
| Brc1ccc(C2=NC(Cc3ccccc3)(Cn3ccnc3)CO2)cc1 (centres undefined) | > 64 | > 64 | – | > 64 | – | > 64 | – | 4 (≈ 10.1 µM) | – | > 64 | > 64 | > 64 | – | – | – | – | – |
| Fc1ccc(CC2(Cn3ccnc3)COC(c3ccc(-c4ccsc4)cc3)=N2)c(F)c1 (centres undefined) | > 64 | > 64 | – | > 64 | – | 2 (≈ 4.59 µM) | – | > 64 | – | > 64 | > 64 | > 64 | – | – | – | – | – |
| Clc1ccc(CC2(Cn3ccnc3)COC(c3ccc(-c4ccsc4)cc3)=N2)cc1 (centres undefined) | > 64 | > 64 | – | > 64 | – | > 64 | – | > 64 | – | > 64 | > 64 | > 64 | – | – | – | – | – |
| c1ccc(CC2(Cn3ccnc3)COC(c3cc4ccccc4s3)=N2)cc1 (centres undefined) | > 64 | > 64 | – | > 64 | – | > 64 | – | 2 (≈ 5.36 µM) | – | > 64 | > 64 | > 64 | – | – | – | – | – |
